We go through 51 molecules from patent publication US20070275967A1, “Pyrazolinols” (BAYER CROPSCIENCE AKTIENGESELLSCHAFT, priority 2003, published 2007).

The series can be described thus: logP determination by HPLC on reversed-phase column (EEC Directive 79/831 Annex V.A8). The format is physicochemical. The following applies: acidic range (pH 2.3), marked a); 0.1% aqueous phosphoric acid/acetonitrile gradient; reversed-phase C 18; 43° C. Here is the method: The logP values given in the table were determined in accordance with EEC Directive 79/831 Annex V.A8 by HPLC (High Performance Liquid Chromatography) on a reversed-phase column (C 18). Temperature: 43° C. (a) Mobile phases for the determination in the acidic range (pH 2.3): 0.1% aqueous phosphoric acid, acetonitrile; linear gradient from 10% acetonitrile to 90% acetonitrile—the corresponding measurement results in table 1 are marked a). (b) Mobile phases for the determination in the neutral range (pH 7.5): 0.01-molar aqueous phosphate buffer solution, acetonitrile; linear gradient from 10% acetonitrile to 90% acetonitrile—the corresponding measurement results in table 1 are marked b). Calibration was carried out using unbranched alkan-2-ones (having 3 to 16 carbon atoms) with known logP values (determination of the logP values by the retention times using linear interpolation between two successive alkanones).

In the case of `COc1ccc(NC(=S)N2N=C(CC(C)C)CC2(O)C(F)(F)F)cc1` (racemic) [Example 23], the logP entry is “logP = 4.17^a)”.

Consider `CC(C)C1=NN(C(=O)Nc2ccccc2Cl)C(O)(C(F)(F)F)C1` (racemic) [Example 37], for which the logP entry is reported as “logP = 4.10^a)”.

Turning to `CCC1=NN(C(=S)Nc2ccc(C(C)(C)C)cc2)C(O)(C(F)(F)F)C1` (racemic) [Example 16], the logP result is “logP = 4.84^a)”.

In the case of `CCC1=NN(C(=S)Nc2cccc(Cl)c2Cl)C(O)(C(F)(F)F)C1` (stereo not drawn) [Example 87], the logP entry was “logP = 4.29^a)”.

On to `CC1=NN(C(=S)NCc2ccccc2Cl)C(O)(C(F)(F)F)C1` (stereo not drawn) [Example 125], for which the logP result is listed as “logP = 3.87^a)”.

For the molecule `CC1=NN(C(=S)Nc2ccc(OC(F)(F)F)cc2)C(O)(C(F)(F)F)C1` (stereo not drawn) [Example 112], the logP result is given as “logP = 3.89^a)”.

With `CC1=NN(C(=S)Nc2cc(C(F)(F)F)ccc2Cl)C(O)(C(F)(F)F)C1` (stereo not drawn) [Example 107], the logP result is given as “logP = 3.94^a)”.

On to `CCC1=NN(C(=S)Nc2cccc(F)c2)C(O)(C(F)(F)F)C1` (stereo not drawn) [Example 94], for which the logP result is listed as “logP = 3.71^a)”.

As for `CC1=NN(C(=S)Nc2ccc(F)cc2)C(O)(C(F)(F)F)C1` (stereo not drawn) [Example 110], the logP entry is “logP = 2.06^a)”.

With `CC1=NN(C(=S)Nc2cccc(F)c2)C(O)(C(F)(F)F)C1` (stereo not drawn) [Example 111], the logP entry is listed as “logP = 3.18^a)”.

`O=C(Nc1ccc(OC(F)(F)F)cc1)N1N=C(C2(Cl)CC2)CC1(O)C(F)(F)F` (stereo not drawn) [Example 52]: the logP entry is reported as “logP = 4.07^a)”.

Regarding `CC(C)(C)C1=NN(C(=O)Nc2ccc(Cl)c(Cl)c2)C(O)(C(F)(F)F)C1` (stereo not drawn) [Example 59], the logP result was “logP = 4.62^a)”.

On to `CC(C)C1=NN(C(=S)NCc2ccco2)C(O)(C(F)(F)F)C1` (racemic) [Example 41], for which the logP result is given as “logP = 3.78^a)”.

Take `CC(C)C1=NN(C(=O)Nc2ccc(OC(F)(F)F)cc2)C(O)(C(F)(F)F)C1` (racemic) [Example 17]: the logP entry is listed as “logP = 4.09^a)”.

Turning to `OC1(C(F)(F)F)CC(c2ccco2)=NN1C(=S)Nc1ccc(Cl)cc1` (stereo not drawn) [Example 81], the logP result is “logP = 3.99^a)”.

As for `Cc1ccc(NC(=S)N2N=C(C(C)(C)C)CC2(O)C(F)(F)F)cc1` (stereo not drawn) [Example 62], the logP result is recorded as “logP = 4.62^a)”.

In the case of `CCC1=NN(C(=S)Nc2ccccc2OC)C(O)(C(F)(F)F)C1` (stereo not drawn) [Example 91], the logP result was “logP = 3.85^a)”.

`CC1=NN(C(=S)Nc2ccc(Oc3ccccc3)cc2)C(O)(C(F)(F)F)C1` (stereo not drawn) [Example 104]: the logP result is “logP = 4.15^a)”.

Consider `CC(C)(C)C1=NN(C(=S)Nc2ccc(Cl)cc2)C(O)(C(F)(F)C(F)(F)C(F)(F)F)C1` (stereo not drawn) [Example 138], for which the logP entry was “logP = 5.57^a)”.

As to `COc1ccccc1NC(=S)N1N=C(C)CC1(O)C(F)(F)F` (stereo not drawn) [Example 108], the logP entry is on record as “logP = 3.36^a)”.

`CC(C)CC1=NN(C(=O)Nc2ccc(Cl)cc2)C(O)(C(F)(F)F)C1` (racemic) [Example 5]: the logP result is on record as “logP = 4.18^a)”.

Turning to `CC(C)C1=NN(C(=O)Nc2ccc(Cl)cc2)C(O)(C(F)(F)F)C1` (racemic) [Example 18], the logP result was “logP = 3.79^a)”.

For the molecule `CC(C)(C)C1=NN(C(=O)Nc2ccc(Cl)cc2)C(O)(C(F)(F)F)C1` (stereo not drawn) [Example 58], the logP entry is reported as “logP = 4.16^a)”.

For the molecule `CC(C)(C)C1=NN(C(=O)Nc2ccccc2Cl)C(O)(C(F)(F)F)C1` (stereo not drawn) [Example 69], the logP result is on record as “logP = 4.48^a)”.

Take `CCC1=NN(C(=S)Nc2ccc(Oc3ccccc3)cc2)C(O)(C(F)(F)F)C1` (stereo not drawn) [Example 88]: the logP entry is “logP = 4.52^a)”.

For the molecule `CC(C)C1=NN(C(N)=S)C(O)(C(F)(F)F)C1` (racemic) [Example 45], the logP result is recorded as “logP = 2.47^a)”.

`CCC1=NN(C(=O)Nc2ccc(Cl)cc2)C(O)(C(F)(F)F)C1` (racemic) [Example 49]: the logP result is “logP = 3.43^a)”.

Regarding `O=C(Nc1ccc(Cl)cc1)N1N=C(c2ccccc2)CC1(O)C(F)(F)F` (stereo not drawn) [Example 82], the logP result is on record as “logP = 3.97^a)”.

As for `CC(C)(C)C1=NN(C(=O)Nc2ccc(Cl)cc2)C(O)(C(F)F)C1` (stereo not drawn) [Example 144], the logP result is given as “logP = 3.72^a)”.

On to `CCC1=NN(C(=S)Nc2cc(C(F)(F)F)ccc2Cl)C(O)(C(F)(F)F)C1` (stereo not drawn) [Example 90], for which the logP entry was “logP = 4.51^a)”.

On to `CCC1=NN(C(=S)Nc2cc(Cl)ccc2Cl)C(O)(C(F)(F)F)C1` (stereo not drawn) [Example 85], for which the logP entry is listed as “logP = 4.47^a)”.

Turning to `CC1=NN(C(=S)Nc2ccc(C(C)(C)C)cc2)C(O)(C(F)(F)F)C1` (stereo not drawn) [Example 121], the logP result was “logP = 4.45^a)”.

With `CC1=NN(C(=S)Nc2c(F)cc(F)cc2F)C(O)(C(F)(F)F)C1` (stereo not drawn) [Example 105], the logP entry was “logP = 3.12^a)”.

As for `CC1=NN(C(=S)Nc2cccc(Cl)c2Cl)C(O)(C(F)(F)F)C1` (stereo not drawn) [Example 103], the logP result is on record as “logP = 3.75^a)”.

Consider `CC(C)CC1=NN(C(=S)Nc2ccc(C(C)(C)C)cc2)C(O)(C(F)(F)F)C1` (racemic) [Example 25], for which the logP entry is on record as “logP = 5.50^a)”.

On to `CCC1=NN(C(=O)NCc2ccc(Cl)c(Cl)c2)C(O)(C(F)(F)F)C1` (stereo not drawn) [Example 97], for which the logP entry was “logP = 4.34^a)”.

In the case of `CC(C)(C)C1=NN(C(=O)NCc2ccc(Cl)cc2)C(O)(C(F)(F)F)C1` (stereo not drawn) [Example 71], the logP entry is given as “logP = 3.94^a)”.

For the molecule `CCC1=NN(C(=S)Nc2ccc(C(F)(F)F)cc2)C(O)(C(F)(F)F)C1` (stereo not drawn) [Example 54], the logP result is recorded as “logP = 4.27^a)”.

Consider `CC(C)(C)C1=NN(C(=O)Nc2ccc(Cl)cc2Cl)C(O)(C(F)(F)F)C1` (stereo not drawn) [Example 68], for which the logP result is recorded as “logP = 5.18^a)”.

In the case of `CC(C)(C)C1=NN(C(=S)NCc2ccc(Cl)cc2)C(O)(C(Cl)(Cl)Cl)C1` (stereo not drawn) [Example 130], the logP result is listed as “logP = 2.72^a)”.

`COc1ccc(NC(=S)N2N=C(C)CC2(O)C(F)(F)F)cc1` (stereo not drawn) [Example 102]: the logP entry is listed as “logP = 3.10^a)”.

As to `CCC1=NN(C(=S)Nc2ccc(OC)cc2)C(O)(C(F)(F)F)C1` (stereo not drawn) [Example 86], the logP entry is listed as “logP = 3.47^a)”.

Regarding `CC(C)C1=NN(C(=O)Nc2cccnc2)C(O)(C(F)(F)F)C1` (racemic) [Example 47], the logP entry is given as “logP = 1.15^a)”.

With `CC(C)(C)C1=NN(C(=O)Nc2ccc(Cl)cc2)C(O)(C(F)(F)C(F)(F)F)C1` (stereo not drawn) [Example 134], the logP result is “logP = 4.77^a)”.

In the case of `CC(C)(C)C1=NN(C(=S)Nc2ccc(Cl)cc2)C(O)(C(Cl)(Cl)Cl)C1` (stereo not drawn) [Example 129], the logP result was “logP = 4.03^a)”.

As for `CC1=NN(C(=S)NCc2ccc(Cl)c(Cl)c2)C(O)(C(F)(F)F)C1` (stereo not drawn) [Example 113], the logP result was “logP = 4.26^a)”.

For the molecule `OC1(C(F)(F)F)CC(C2(Cl)CC2)=NN1C(=S)Nc1ccc(Cl)cc1` (stereo not drawn) [Example 79], the logP entry was “logP = 4.36^a)”.

Regarding `CCC1=NN(C(=S)Nc2ccc(OC(F)(F)F)cc2)C(O)(C(F)(F)F)C1` (stereo not drawn) [Example 95], the logP result is reported as “logP = 4.31^a)”.

As for `CCC1=NN(C(=S)Nc2ccccc2)C(O)(C(F)(F)F)C1` (racemic) [Example 38], the logP result is reported as “logP = 3.57^a)”.

On to `CC(C)(C)C1=NN(C(=O)Nc2ccc(Cl)cc2)C(O)(C(F)(F)C(F)(F)C(F)(F)F)C1` (stereo not drawn) [Example 140], for which the logP result is “logP = 5.20^a)”.

Regarding `O=C(Nc1ccc(Cl)cc1)N1N=C(c2ccco2)CC1(O)C(F)(F)F` (stereo not drawn) [Example 80], the logP result is “logP = 3.41^a)”.
